Some results are limits rather than exact numbers.

Assay [1] concerns GL261 murine glioblastoma cells co-cultured with microglia. The assay is described as follows: 3-dimensional microglia-glioblastoma co-culture transwell invasion assay (microglia-stimulated GL261 invasion). The assay is classed as cell-based. To be noted: 3:1 glioblastoma cells to microglia, BME, no serum, 48 h; read-out: IC50 for interference with microglia-stimulated GL261 invasion. How it is done: Invasion Assays: Glioblastoma and microglial cells were labelled with cell tracker green CMFDA and with cell tracker red CMTPX, respectively, and then embedded in 50 μL of 10 mg/mL basement membrane extract (BME) (Trevigen). The mixture was then placed in a transwell insert (previously coated with 1 μg/mL fibronectin on the bottom side of the 8 μm filter to maintain adhesion of the cells that invaded through the filter) and allowed to polymerize for 30 min at 37° C. Subsequently, serum free medium was added to both wells. To maintain constant cell numbers, cells were plated at a density per invasion chamber of 15×10^4 GL261 cells and 5×10^4 microglia cells in MSFM. Semapimod or its diluent was added at varying concentrations into the BME and in the media above and below the transwell. Invasion chambers were incubated for 48 h and subsequently fixed in 3.7% formaldehyde in phosphate-buffered saline (PBS). The gel in the transwell inserts was carefully removed. Invaded glioblastoma cells were imaged with a Zeiss Axiovision inverted microscope and a 10× objective. All invaded cells were counted.
To determine the effect of microglia on the invasive properties of glioblastoma cells, a novel 3-dimensional microglia-glioblastoma co-culture assay was designed that provides a better approximation of the in vivo setting than a 2-dimensional configuration. […]

A further assay concerns GL261 cells. The assay is described as follows: proliferation assay of GL261 co-cultured with microglia (SRB). Particulars: 200 nM, 3 days. The assay is classed as cell-based, murine. How it is done: Proliferation Assay: 50,000 GL261 cells were cultured overnight in the absence or presence or microglia (50,000 or 150,000) in serum-containing medium and subsequently cultured in the presence or absence of 200 nM semapimod in a 6-well dish in serum-free conditions. Microglia were added in a ratio of 1:1 or 1:3 GL261:microglia. After 72 h of incubation, plates were washed in PBS and fixed in 3.7% formaldehyde in PBS. In initial experiments, the microglia were stained with tomato lectin for 45 mins and stained all nuclei with DAPI. Ten fluorescence micrographs of each culture were taken with a Zeiss Axiovert-based imaging system. […] Therefore in subsequent experiments the cells were stained with SRB as described for the colony formation assay. After drying, the plates were de-stained with 500 μL of 10 mM Tris base (Sigma). Eluted SRB was measured by absorbance at 490 nm.

The test system of a further assay is GL261 tumors. Put plainly: orthotopic GL261 glioblastoma model in syngeneic C57Bl/6 mice, intracranial delivery by osmotic pump. Format: in vivo, C57BL/6J mice. How it is done:
Animal Experiments: All procedures involving mice were conducted in accordance with the National Institutes of Health regulations concerning the use and care of experimental animals. The study of mice was approved by the Institutional Animal Care and Use Committee (IACUC) of the Feinstein Institute. First, 8 week old male C57BL/6J mice were inoculated in the right caudate putamen with GL261 cells. Briefly, animals were placed in a stereotactic frame after pre-anesthesia exposure in a box of 5% isoflurane. Deep anesthesia was maintained on the frame at approximately 2% isoflurane and 2% O2. A burr hole was drilled 1 mm anterior and 2.5 mm to the right of the bregma. With the aid of the stereotactic frame, GL261 cells (2×10^4 cells suspended in 1 μL) were injected with a Hamilton syringe at a depth of 3 mm over a one min time period. Subsequently, the syringe was left in place for 1 min to prevent reflux.
Seven days after implantation of the GL261 cells, an osmotic pump (Alzet, Durect) filled with either 0.42 mg/ml solution of semapimod or vehicle was implanted in a subcutaneous pocket on the dorsal flank of the animal. A catheter with attached cannula delivered the drug intracranially over a period of 2 weeks, at a steady rate of 0.25 μl/h, which is equivalent to a dose of […], assuming no blood-brain barrier permeability of the drug. Starting one day after pump implantation, animals were given 2 Gy whole brain irradiation every other day over a period of 10 days (10 Gy total).
Brains from mice-bearing tumors were frozen on dry ice and stored at −80° C. until processing. The brain was sliced using a cryostat at −20° C. at a thickness of 40 μm (for tumor sizing) or 8 μm for immunohistochemistry. Slices were placed on pre-coated poly-1-lysine slides (Superfrost, Fisher) and fixed in 3.7% formaldehyde in PBS. Sections were stained with Harris-modified haematoxilin solution. Activated microglia were visualized with an Iba1 antibody (Wako). Tumor cell invasion was determined by counting the number of Ki67 (Millipore) positive nuclei located beyond the tumor border. The border was outlined by determining where the bulk of the tumor material was found by Ki67 staining Tumor size was determined as the area of the largest cross section of the tumor, multiplied by the depth of the tumor.
The cell density of the tumor was calculated by counting the total number of cells in 10 fields taken over different sections and multiplying the tumor area by the thickness of the slice (8 μm) to obtain total number of cells in a tumor section. This was then divided by the volume of the tumor section to obtain the number of cells per unit volume. To obtain the total number of cells in a tumor, the cell density was multiplied by the calculated volume of the tumor.
Animals were inoculated with 2×10^4 GL261 cells into the right caudate putamen. To deliver semapimod, an osmotic pump was used that was implanted subcutaneously in the dorsal flank of the animal and fed a transcranial cannula that was inserted into the tumor. In order to mimic a therapeutic setting, tumors were allowed to develop for 1 week before the onset of treatment. To score tumor cell invasion, brain sections were probed for the presence of proliferative antigen Ki67. […] Whereas control tumors display diffuse edges and extensive tumor cell invasion into the surrounding parenchyma, semapimod-treated tumors have a sharply demarcated border (FIG. 4A).

The subject of another assay is ES cells (SK-NEP1). The assay is described as follows: proliferation assay of ES cells co-cultured with polarized macrophages. The assay is classed as cell-based, human. Particulars: co-culture with polarized macrophages. As to the method:
In vivo, human ES cells (SK-NEP1) were surgically implanted into the left kidney of athymic mice. Mice were treated for 7 weeks with CNI-1493 or vehicle. Lung parenchyma was assessed for metastases utilizing both H&E and immunohistochemistry for the ES-specific CD99 and endothelial-specific CD31 markers. In vitro, primary macrophages isolated from human blood were polarized to M1 or M2 phenotypes by exposure to GM-CSF or M-CSF and activated with IFN-γ and LPS or IL-4. Cells were co-cultured with polarized macrophages and underwent proliferation and invasion assays in the presence or absence of CNI-1493.

Where [2] appears, read: two weeks after tumor cell inoculation.

Take `C/C(=N\NC(=N)N)c1cc(NC(=O)CCCCCCCCC(=O)Nc2cc(/C(C)=N/NC(=N)N)cc(/C(C)=N/NC(=N)N)c2)cc(/C(C)=N/NC(=N)N)c1` [semapimod]: the IC50 (commonly the concentration that gives 50% inhibition) in assay [1] was under 50 nM. The “effect on microglia-stimulated glioblastoma cell proliferation” value in the assay with GL261 cells was “does not affect”. This compound also registered a median survival in the assay on GL261 tumors (absence of radiation, controls 20 days, not significant) of 22 days. Besides, the “number of Iba1+ microglia per tumor area” value in the assay on GL261 tumors (equivalent to 6 mg/kg/day intracranially, 1 week) is on record as “No significant difference”. Besides, the “inhibition of tumor cell invasion in vivo (Ki67-positive cells beyond tumor border)” value in the assay on GL261 tumors (equivalent to 6 mg/kg/day intracranially, 1 week, start 7 days after inoculation) is “more than 75%”. For the same compound, in the assay on GL261 tumors (setting [2]), the tumor cell density entry is “small but significant increase” and the “tumor size (volume)” value is recorded as “robust inhibition”. The “estimated total number of cells in tumor” value with GL261 tumors (two weeks after tumor cell inoculation, versus control tumors) is listed as “significantly less”. Besides, the “tumors by histological analysis in surviving animals” value in the assay with GL261 tumors (with 10 Gy fractionated whole brain irradiation) is “no detectable tumors”. Also, the “survival beyond the median survival time of control animals” value in the assay on GL261 tumors (with 10 Gy fractionated whole brain irradiation, most of the animals) is “at least 40 days”. In addition, the “effect on ES cellular proliferation” value in the assay with ES cells (SK-NEP1) is on record as “unaffected”.

The values are drawn from patent publication US9440914B2, “Method for treating glioblastomas and other tumors” (THE FEINSTEIN INSTITUTE FOR MEDICAL RESEARCH, priority 2013, dated 2016).
